How the values were obtained:
[1] = Measurement of turbidity in BSA; assay type: physicochemical; conditions: BSA 1%, peptide 50 μM, absorbance at 600 nm
Method: The solutions were evaluated for their absorbance at a wavelength of 600 nm by using a spectrophotometer (DU640, manufactured by Beckman).

[2] = Affinity for phosphatidyl serine (EIA, inhibition of human Factor VIII binding); conditions: for IC50: class of IC50 for inhibiting human Factor VIII binding, 5% BSA
Method: The specific affinity of the peptide for phosphatidyl serine was evaluated by measuring activity of the peptide for inhibiting the binding of the human Factor VIII to phosphatidyl serine by using human Factor VIII which is known to bind to phosphatidyl serine but not to phosphatidyl choline in the presence of serum albumin. To be more specific, 100 μL of ethanol solution containing 10 μg/mL of phospholipids at a phosphatidyl serine (manufactured by SIGMA): phosphatidyl choline (manufactured by SIGMA) ratio of 3:7 was added to the wells of a 96 well plate (Immulon I, manufactured by Dynatech), and exsiccated by using a centrifugal evaporator (EC-95C, manufactured by Sakuma Seisakusho) at 40° C. for 40 minutes. 200 μL each of TBS (10 mM Tris-HCl (pH 7.4) containing 1% bovine serum albumin (BSA Fraction V, hereinafter referred to as BSA, manufactured by Seikagaku Corporation) and 0.9% (W/V) NaCl solution were added to each well, and the wells were blocked by allowing the plate to stand at 37° C. for 2.5 hours. After washing the plate with water, 100 μL of TBS solution supplemented with 5% BSA mixed with human Factor VIII (manufactured by American Diagnostica) at a final concentration 1 μg/mL and the peptide of predetermined dose prepared in Example 1 was added to each well, and the reaction was allowed to take place at 4° C. for 24 hours.
After the completion of the reaction, the human Factor VIII that became bound to the phosphatidyl serine was measured by enzyme immunoassay (EIA) in accordance with the general procedure described in a book (“Enzyme Immunoassay (3rd ed.)”, Eiji Ishikawa et al., Igaku-Shoin, 1987). To be more specific, the measurement was conducted by using anti-human Factor VIII mouse monoclonal antibody (ESH8, manufactured by American Diagnostica) for the primary antibody, horseradish peroxidase-labeled anti-mouse IgG antibody (P0260, manufactured by Daco) for the secondary antibody, and tetramethylbenzidine for the chromogenic substrate, and measuring the absorption at a wavelength of 450 nm by using a reference wavelength of 630 nm on a spectrophotometer (NJ-2100, manufactured by Intermed).
Intensity of the affinity of the peptide for the phosphatidyl serine was evaluated by using the value obtained by subtracting the absorption of the well having no human Factor VIII added thereto from the absorption of the well having only the human Factor VIII added thereto as the control value (100%), and designating the peptide concentration at which the value 0.5 was obtained when the value obtained by subtracting the absorption of the well having only the peptide added thereto from the absorption of the well having a mixture of the human Factor VIII and the peptide added thereto were divided by the control value as the IC50 value, and evaluating the intensity to be ++ when the IC50 value was up to 1 μM, and +when the intensity was more than 1 μM but not more than 10 μM. It is to be noted that the specific affinity was evaluated to be none when the intensity was 10 μM or more.

[3] = test system: cell (Vero, T24 or A549 of Example 9; not given); experiment: Nucleic acid-introducing ability, luciferase-expressing plasmid (procedure of Example 9); assay type: cell-based; conditions: for ability of introducing the nucleic acid into a cell: procedure of Example 9, luciferase-expressing plasmid; for Nucleic acid-introducing ability: class of fluorescent count per 1 mg of protein per 1 second, highest of peptide 1.25, 2.5, 5 μM, plasmid 1 μg/mL
Source text: A cell line established from monkey kidney (Vero cell) and a human bladder cancer cell (T24 cell) purchased from American Type Culture Collection (ATCC) and human lung cancer cell (A549 cell) purchased from Dainippon Pharmaceutical were inoculated on a 24 well culture plate (manufactured by NALGEN NUNC) at 1×10^5 cells/well. Vero cell and A549 cell were cultivated in DMEM (manufactured by Life Technologies Oriental) supplemented with 10% fetal bovine serum (hereinafter referred to as FBS, manufactured by NICHIREI), and T24 cell was cultivated in McCoy's 5a (manufactured by Life Technologies Oriental) supplemented with 10% FBS in 5% CO2 atmosphere at 37° C. for 24 hours. After removing the medium, opti-MEM (manufactured by Life Technologies Oriental) prepared to have the concentration of the luciferase-expressing plasmid prepared in Example 7 of 1 μg/mL and the concentration of the peptide prepared in Example 1 of 1.25, 2.5, or 5 μM was added, and the cells were cultivated for 5 hours. Next, in the case of Vero cell and A549 cell, the culture medium was replaced with DMEM supplemented with 10% FBS, and in the case of T24 cell, the medium was replaced with McCoy's 5a supplemented with 10% FBS, and cultivation was continued in 5% CO2 atmosphere and at 37° C. for another 24 hours. The luciferase activity expressed in the cell was then measured by the method instructed in luciferase assay system (manufactured by Promega). To be more specific, the cells were washed with phosphate-buffered saline (hereinafter referred to as PBS, manufactured by SIGMA), and the cells were lyzed with Passive Lysis Buffer attached to the kit. 20 μL of this cell lysate and 100 μL of the Luciferase Assay Reagent II attached to the kit was added to a fluorescence-measuring plate (Microlite™ 1 plate, manufactured by Dynatech), and after mixing, fluorescence was measured for 1 second by using a multilabel counter (ARVO™ SY1420 MULTILABEL COUNTER, manufactured by Wallac Beltold.
Concentration of the protein in the cell lysate was measured by mixing 8 μL of the cell lysate and 200 μL of the protein assay solution (manufactured by Biorad) with 792 μL of ultrapure water in a disposable cuvette (UV fluorescent cuvette A204X, manufactured by Funakoshi), allowing the mixture to stand for 5 minutes at room temperature, and measuring the absorption at 595 nm with a spectrophotometer (DU640, manufactured by Beckman). Bovine serum albumin (BSA) was used for the standard protein. By using the thus obtained results, count per 1 second per 1 mg of protein of the cell lysate was calculated to thereby use the count as the luciferase activity, and the highest count in the three conditions of different peptide concentration was designated the gene-introducing ability of the peptide.
It is to be noted that the nucleic acid-introducing ability was classified as described below on the bases of the fluorescent count per 1 mg of protein per 1 second (cps/mg protein).

Substance | OD 600 [1] | Nucleic acid-introducing ability [3] | IC50 [2] | other results
Polylysine [reference compound] | ≥ 1 | – | – | affinity for phosphatidyl serine ([2]; procedure of Example 20): no affinity for phosphatidyl serine
SEQ ID NO:26: comparative peptide, SEQ ID NO:1 substituted so that it lacks the four sided 18 amino acid sequence (TRYLRIHPRSWVLQIALRLRYLRIHPRSWVLQIALRS; synthetic peptide using an automatic peptide synthesizer) [reference compound] | – | – | – | fluorescent count ([3]; procedure of Example 9): less than 10,000 cps/mg protein; ability of introducing the nucleic acid into a cell [3]: no nucleic acid-introducing ability was found
SEQ ID NO: 2: peptide of SEQ ID NO:1 with one or two locations substituted in the 18 amino acid sequence (TRYLRIHPRSWVRQIALRLRYLRIHPRSWVRQIALRS; synthetic peptide using an automatic peptide synthesizer) | 0.01> | 3+ (1,000,000 to less than 10,000,000) | < 1000 nM | –
SEQ ID NO: 3: peptide of SEQ ID NO:1 with one or two locations substituted in the 18 amino acid sequence (TRYLRIHPRSWVHQIRLRLRYLRIHPRSWVHQIRLRS; synthetic peptide using an automatic peptide synthesizer) | 0.01> | 2+ (100,000 to less than 1,000,000) | < 1000 nM | –
SEQ ID NO: 5: peptide of SEQ ID NO:1 with one or two locations substituted in the 18 amino acid sequence (TRFLRIHPRSWVHQIALRLRFLRIHPRSWVHQIALRS; synthetic peptide using an automatic peptide synthesizer) | 0.01> | 2+ (100,000 to less than 1,000,000) | < 1000 nM | –
SEQ ID NO: 6: peptide of SEQ ID NO:1 with one or two locations substituted in the 18 amino acid sequence (TRYLRIHPRSWVHNIALRLRYLRIHPRSWVHNIALRS; synthetic peptide using an automatic peptide synthesizer) | 0.01> | 2+ (100,000 to less than 1,000,000) | < 1000 nM | –
SEQ ID NO: 7: peptide of SEQ ID NO:1 with one or two locations substituted in the 18 amino acid sequence (TRYLRIHPRSWVHQIALKLKYLRIHPRSWVHQIALRS; synthetic peptide using an automatic peptide synthesizer) | 0.01> | 2+ (100,000 to less than 1,000,000) | 1000 to 10000 nM | –
SEQ ID NO: 9: peptide of SEQ ID NO:1 with one or two locations substituted in the 18 amino acid sequence (TRYLRIHPRSWVHQIALRTRYLRIHPRSWVHQIALRS; synthetic peptide using an automatic peptide synthesizer) | – | 3+ (1,000,000 to less than 10,000,000) | – | –
SEQ ID NO: 12: peptide of SEQ ID NO:1 with one or two locations substituted in the 18 amino acid sequence (TRYLRIHPRSWVHQIALSLRYLRIHPRSWVHQIALSS; synthetic peptide using an automatic peptide synthesizer) | – | 2+ (100,000 to less than 1,000,000) | – | –
SEQ ID NO: 13: peptide of SEQ ID NO:1 with one or two locations substituted in the 18 amino acid sequence (TRYLRIHPRSLVHQIALRLRYLRIHPRSLVHQIALRS; synthetic peptide using an automatic peptide synthesizer) | – | 3+ (1,000,000 to less than 10,000,000) | – | –
SEQ ID NO: 14: peptide of SEQ ID NO:1 with one or two locations substituted in the 18 amino acid sequence (TRYLRIHPRSWSHQIALRLRYLRIHPRSWSHQIALRS; synthetic peptide using an automatic peptide synthesizer) | – | 3+ (1,000,000 to less than 10,000,000) | – | –
SEQ ID NO: 18: peptide of SEQ ID NO:1 with one or two locations substituted in the 18 amino acid sequence (TRYLRIHPRSWLHQIALRTRYLRIHPRSWLHQIALRS; synthetic peptide using an automatic peptide synthesizer) | – | 4+ (10,000,000 or more) | – | –
SEQ ID NO: 20: peptide of SEQ ID NO:1 with three locations substituted in the 18 amino acid sequence (TRYLRLHPRSWVHQLALRTRYLRLHPRSWVHQLALRS; synthetic peptide using an automatic peptide synthesizer) | – | 4+ (10,000,000 or more) | – | –
SEQ ID NO: 21: peptide of SEQ ID NO:1 with three locations substituted in the 18 amino acid sequence (TKYLKIHPKSWVHQIALRLKYLKIHPKSWVHQIALRS; synthetic peptide using an automatic peptide synthesizer) | – | 2+ (100,000 to less than 1,000,000) | – | –
SEQ ID NO: 22: peptide of SEQ ID NO:1 with three locations substituted in the 18 amino acid sequence (TRRLRIHPRRWVHRIALRLRRLRIHPRRWVHRIALRS; synthetic peptide using an automatic peptide synthesizer) | – | 3+ (1,000,000 to less than 10,000,000) | – | –
SEQ ID NO: 24: deletion mutant of the peptide of SEQ ID NO:4 (TLRYLRIHPRSWLHQIALRS; synthetic peptide using an automatic peptide synthesizer) | – | 1+ (10,000 to less than 100,000) | – | ability of introducing the nucleic acid into a cell [3]: had the ability of introducing the nucleic acid into a cell
